# Patent US20260262643A1, “HERBICIDAL BENZOXAZINES” (FMC CORPORATION, priority 2022, published 2026)
# What was measured:
# blackgrass [1] = assay: Test C preemergence; assay type: in vivo, Alopecurus myosuroides; details: 0 to 100 scale (0 no effect, 100 complete control); for Plant response rating, Blackgrass: Preemergence, 500 g ai/ha, visual rating after 10 days; for Blackgrass plant response rating: Test C, preemergence, 125 g ai/ha
# How it was run: (§1)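 Visual injury score, 0–100 (100 = complete control), taken 10 days after treatment relative to untreated controls. Pre: directed spray onto soil over sown seeds. Post: foliar spray at one- to two-leaf stage, 2–10 cm. Solvent/surfactant formulation; loam–sand soil; greenhouse.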
# soybean [2] = assay: Test C postemergence; assay type: in vivo, Glycine max; details: 10 days
# How it was run: as §1
# pigweed, palmer [3] = assay: Test C postemergence; assay type: in vivo, Amaranthus palmeri; details: 10 days
# How it was run: as §1
# ryegrass, Italian [4] = assay: Test C preemergence; assay type: in vivo, Lolium multiflorum; details: 0 to 100 scale (0 no effect, 100 complete control); for Plant response rating, Ryegrass, Italian: Preemergence, 500 g ai/ha, visual rating after 10 days; for Ryegrass, Italian plant response rating: Test C, preemergence, 125 g ai/ha
# How it was run: as §1
# oat, wild [5] = assay: Test C preemergence; assay type: in vivo, Avena fatua; details: 0 to 100 scale (0 no effect, 100 complete control); for Plant response rating, Oat, Wild: Preemergence, 500 g ai/ha, visual rating after 10 days; for Oat, Wild plant response rating: Test C, preemergence, 125 g ai/ha
# How it was run: as §1
# corn [6] = assay: Test C postemergence; assay type: in vivo, Zea mays; details: 10 days
# How it was run: as §1
# ducksalad = assay: Test D flooded paddy test; assay type: in vivo, Heteranthera limosa; details: 250 g ai/ha, applied to paddy water, visual rating after 13 to 14 days, scale 0 to 100 (0 no effect, 100 complete control)
# Description: (§2) Plant species in the flooded paddy test selected from barnyardgrass (Echinochloa crus-galli), ducksalad (Heteranthera limosa), rice (Oryza sativa), and sedge, umbrella (small-flower umbrella sedge, Cyperus difformis) were grown to the 2-leaf stage for testing. At time of treatment, test pots were flooded to 3 cm above the soil surface, treated by application of test compounds directly to the paddy water, and then maintained at that water depth for the duration of the test. Treated plants and controls were maintained in a greenhouse for 13 to 14 days, after which time all species were compared to controls and visually evaluated. Plant response ratings, summarized in Table D, are based on a scale of 0 to 100 where 0 is no effect and 100 is complete control. A dash (-) response means no test result.
# ragweed [7] = assay: Test C postemergence; assay type: in vivo, Ambrosia artemisiifolia; details: 10 days
# How it was run: as §1
# corn [8] = assay: Test C preemergence; assay type: in vivo, Zea mays; details: 0 to 100 scale (0 no effect, 100 complete control); for Plant response rating, Corn: Preemergence, 500 g ai/ha, visual rating after 10 days; for Corn plant response rating: Test C, preemergence, 125 g ai/ha
# How it was run: as §1
# galium = assay: Test C postemergence; assay type: in vivo, Galium aparine; details: 10 days
# How it was run: as §1
# kochia [9] = assay: Test C postemergence; assay type: in vivo, Bassia scoparia; details: 10 days
# How it was run: as §1
# soybean [10] = assay: Test C preemergence; assay type: in vivo, Glycine max; details: 0 to 100 scale (0 no effect, 100 complete control); for Plant response rating, Soybean: Preemergence, 500 g ai/ha, visual rating after 10 days; for Soybean plant response rating: Test C, preemergence, 125 g ai/ha
# How it was run: as §1
# wheat [11] = assay: Test C preemergence; assay type: in vivo, Triticum aestivum; details: 0 to 100 scale (0 no effect, 100 complete control); for Plant response rating, Wheat: Preemergence, 500 g ai/ha, visual rating after 10 days; for Wheat plant response rating: Test C, preemergence, 125 g ai/ha
# How it was run: as §1
# oat, wild [12] = assay: Test C postemergence; assay type: in vivo, Avena fatua; details: 10 days
# How it was run: as §1
# barnyardgrass [13] = assay: Test D flooded paddy test; assay type: in vivo, Echinochloa crus-galli; details: 250 g ai/ha, applied to paddy water, visual rating after 13 to 14 days, scale 0 to 100 (0 no effect, 100 complete control)
# Description: as §2
# rice = assay: Test D flooded paddy test; assay type: in vivo, Oryza sativa; details: 250 g ai/ha, applied to paddy water, visual rating after 13 to 14 days, scale 0 to 100 (0 no effect, 100 complete control)
# Description: as §2
# wheat [14] = assay: Test C postemergence; assay type: in vivo, Triticum aestivum; details: 10 days
# How it was run: as §1
# ragweed [15] = assay: Test C preemergence; assay type: in vivo, Ambrosia artemisiifolia; details: 0 to 100 scale (0 no effect, 100 complete control); for Plant response rating, Ragweed: Preemergence, 500 g ai/ha, visual rating after 10 days; for Ragweed plant response rating: Test C, preemergence, 125 g ai/ha
# How it was run: as §1
# blackgrass [16] = assay: Test C postemergence; assay type: in vivo, Alopecurus myosuroides; details: 10 days
# How it was run: as §1
# barnyardgrass [17] = assay: Test C preemergence; assay type: in vivo, Echinochloa crusgalli; details: 0 to 100 scale (0 no effect, 100 complete control); for Plant response rating, Barnyardgrass: Preemergence, 500 g ai/ha, visual rating after 10 days; for Barnyardgrass plant response rating: Test C, preemergence, 125 g ai/ha
# How it was run: as §1
# ryegrass, Italian [18] = assay: Test C postemergence; assay type: in vivo, Lolium multiflorum; details: 10 days
# How it was run: as §1
# sedge, umbrella = assay: Test D flooded paddy test; assay type: in vivo, Cyperus difformis; details: 250 g ai/ha, applied to paddy water, visual rating after 13 to 14 days, scale 0 to 100 (0 no effect, 100 complete control)
# Description: as §2
# green foxtail = assay: Test C preemergence; assay type: in vivo, Setaria viridis; details: 0 to 100 scale (0 no effect, 100 complete control); for Plant response rating, Foxtail, Green: Preemergence, 500 g ai/ha, visual rating after 10 days; for Foxtail, Green plant response rating: Test C, preemergence, 125 g ai/ha
# How it was run: as §1
# kochia [19] = assay: Test C preemergence; assay type: in vivo, Bassia scoparia; details: 0 to 100 scale (0 no effect, 100 complete control); for Plant response rating, Kochia: Preemergence, 500 g ai/ha, visual rating after 10 days; for Kochia plant response rating: Test C, preemergence, 125 g ai/ha
# How it was run: as §1
# pigweed, palmer [20] = assay: Test C preemergence; assay type: in vivo, Amaranthus palmeri; details: 0 to 100 scale (0 no effect, 100 complete control); for Plant response rating, Pigweed, Palmer: Preemergence, 500 g ai/ha, visual rating after 10 days; for Pigweed, Palmer plant response rating: Test C, preemergence, 125 g ai/ha
# How it was run: as §1
# horseweed = assay: Test C postemergence; assay type: in vivo, Erigeron canadensis; details: 10 days
# How it was run: as §1
# barnyardgrass [21] = assay: Test C postemergence; assay type: in vivo, Echinochloa crusgalli; details: 10 days
# How it was run: as §1
# [22] = 125 g ai/ha, postemergence, 0 to 100 scale, 0 no effect, 100 complete control
# [23] = Postemergence, 500 g ai/ha, visual 0 to 100 scale (0 no effect, 100 complete control)
structure (smiles),measurement,setting,value
COC[C@H]1CN(C(=O)c2cc(-n3cnc(C4CC4)n3)ccc2OC)c2cccc(Cl)c2O1 [Compound 235],"Plant response rating, Blackgrass",blackgrass [1],80
same,Blackgrass plant response rating,blackgrass [1],50
same,"Plant response rating, Soybean",soybean [2]; [22],100
same,"Plant response rating, Soybean",soybean [2]; [23],100
same,"Plant response rating, Pigweed, Palmer","pigweed, palmer [3]; [22]",70
same,"Plant response rating, Pigweed, Palmer","pigweed, palmer [3]; [23]",90
same,"Plant response rating, Ryegrass, Italian","ryegrass, Italian [4]",90
same,"Ryegrass, Italian plant response rating","ryegrass, Italian [4]",80
same,"Plant response rating, Oat, Wild","oat, wild [5]",80
same,"Oat, Wild plant response rating","oat, wild [5]",20
same,"Plant response rating, Corn",corn [6]; [22],50
same,"Plant response rating, Corn",corn [6]; [23],90
same,"Plant response rating, Ducksalad (Flood)",ducksalad,90
same,"Plant response rating, Ragweed",ragweed [7]; [22],70
same,"Plant response rating, Ragweed",ragweed [7]; [23],80
same,"Plant response rating, Corn",corn [8],0
same,Corn plant response rating,corn [8],20
same,"Plant response rating, Galium",galium; [22],100
same,"Plant response rating, Galium",galium; [23],100
same,"Plant response rating, Kochia",kochia [9]; [22],90
same,"Plant response rating, Kochia",kochia [9]; [23],90
same,"Plant response rating, Soybean",soybean [10],70
same,Soybean plant response rating,soybean [10],60
same,"Plant response rating, Wheat",wheat [11],30
same,Wheat plant response rating,wheat [11],30
same,"Plant response rating, Oat, Wild","oat, wild [12]; [22]",40
same,"Plant response rating, Oat, Wild","oat, wild [12]; [23]",60
same,"Plant response rating, Barnyardgrass (Flood)",barnyardgrass [13],10
same,"Plant response rating, Rice (Flood)",rice,15
same,"Plant response rating, Wheat",wheat [14]; [22],30
same,"Plant response rating, Wheat",wheat [14]; [23],30
same,"Plant response rating, Ragweed",ragweed [15],60
same,Ragweed plant response rating,ragweed [15],30
same,"Plant response rating, Blackgrass",blackgrass [16]; [22],70
same,"Plant response rating, Blackgrass",blackgrass [16]; [23],90
same,"Plant response rating, Barnyardgrass",barnyardgrass [17],90
same,Barnyardgrass plant response rating,barnyardgrass [17],50
same,"Plant response rating, Ryegrass, Italian","ryegrass, Italian [18]; [22]",70
same,"Plant response rating, Ryegrass, Italian","ryegrass, Italian [18]; [23]",100
same,"Plant response rating, Sedge, Umbrella (Flood)","sedge, umbrella",90
same,"Plant response rating, Foxtail, Green",green foxtail,100
same,"Foxtail, Green plant response rating",green foxtail,100
same,"Plant response rating, Kochia",kochia [19],90
same,Kochia plant response rating,kochia [19],80
same,"Plant response rating, Pigweed, Palmer","pigweed, palmer [20]",100
same,"Pigweed, Palmer plant response rating","pigweed, palmer [20]",90
same,"Plant response rating, Horseweed",horseweed; [22],30
same,"Plant response rating, Horseweed",horseweed; [23],70
same,"Plant response rating, Barnyardgrass",barnyardgrass [21]; [22],90
same,"Plant response rating, Barnyardgrass",barnyardgrass [21]; [23],90
Cc1ccc(-n2cnc(C(C)(C)O)n2)cc1C(=O)N1C[C@H](C)Oc2c(C)cccc21 [Compound 256],"Plant response rating, Blackgrass",blackgrass [1],90
same,Blackgrass plant response rating,blackgrass [1],70
same,"Plant response rating, Soybean",soybean [2]; [22],100
same,"Plant response rating, Soybean",soybean [2]; [23],100
same,"Plant response rating, Pigweed, Palmer","pigweed, palmer [3]; [22]",80
same,"Plant response rating, Pigweed, Palmer","pigweed, palmer [3]; [23]",100
same,"Plant response rating, Ryegrass, Italian","ryegrass, Italian [4]",100
same,"Ryegrass, Italian plant response rating","ryegrass, Italian [4]",90
same,"Plant response rating, Oat, Wild","oat, wild [5]",90
same,"Oat, Wild plant response rating","oat, wild [5]",90
same,"Plant response rating, Corn",corn [6]; [22],90
same,"Plant response rating, Corn",corn [6]; [23],90
same,"Plant response rating, Ducksalad (Flood)",ducksalad,98
same,"Plant response rating, Ragweed",ragweed [7]; [22],70
same,"Plant response rating, Ragweed",ragweed [7]; [23],80
same,"Plant response rating, Corn",corn [8],90
same,Corn plant response rating,corn [8],50
same,"Plant response rating, Galium",galium; [22],100
same,"Plant response rating, Galium",galium; [23],100
same,"Plant response rating, Kochia",kochia [9]; [22],60
same,"Plant response rating, Kochia",kochia [9]; [23],80
same,"Plant response rating, Soybean",soybean [10],90
same,Soybean plant response rating,soybean [10],100
same,"Plant response rating, Wheat",wheat [11],90
same,Wheat plant response rating,wheat [11],80
same,"Plant response rating, Oat, Wild","oat, wild [12]; [22]",90
same,"Plant response rating, Oat, Wild","oat, wild [12]; [23]",90
same,"Plant response rating, Barnyardgrass (Flood)",barnyardgrass [13],45
same,"Plant response rating, Rice (Flood)",rice,35
same,"Plant response rating, Wheat",wheat [14]; [22],80
same,"Plant response rating, Wheat",wheat [14]; [23],90
same,"Plant response rating, Ragweed",ragweed [15],90
same,Ragweed plant response rating,ragweed [15],70
same,"Plant response rating, Blackgrass",blackgrass [16]; [22],90
same,"Plant response rating, Blackgrass",blackgrass [16]; [23],90
same,"Plant response rating, Barnyardgrass",barnyardgrass [17],100
same,Barnyardgrass plant response rating,barnyardgrass [17],100
same,"Plant response rating, Ryegrass, Italian","ryegrass, Italian [18]; [22]",90
same,"Plant response rating, Ryegrass, Italian","ryegrass, Italian [18]; [23]",100
same,"Plant response rating, Sedge, Umbrella (Flood)","sedge, umbrella",98
same,"Plant response rating, Foxtail, Green",green foxtail,100
same,"Foxtail, Green plant response rating",green foxtail,100
same,"Plant response rating, Kochia",kochia [19],90
same,Kochia plant response rating,kochia [19],80
same,"Plant response rating, Pigweed, Palmer","pigweed, palmer [20]",100
same,"Pigweed, Palmer plant response rating","pigweed, palmer [20]",100
same,"Plant response rating, Horseweed",horseweed; [22],30
same,"Plant response rating, Horseweed",horseweed; [23],40
same,"Plant response rating, Barnyardgrass",barnyardgrass [21]; [22],60
same,"Plant response rating, Barnyardgrass",barnyardgrass [21]; [23],90
